The source of these data is patent US20240109930A1, “TRIAZOLYL-METHYL SUBSTITUTED ALPHA-D-GALACTOPYRANOSIDE DERIVATIVES” (Idorsia Pharmaceuticals Ltd, priority 2021, published 2024).

SMILES strings stand for the structures.

In experiment [1] the target is human Gal-3 (hGal-3) (Homo sapiens (Human), UniProt P17931). The experiment can be described thus: Competitive binding assay: biotinylated hGal-3 binding to microplate-adsorbed asialofetuin (ASF). The note with it: IC50 values from several measurements given as geomean. The procedure, abridged:
(§1)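 Biotinylated hGal-3 or hGal-1 (preferably cysteine-free Cys→Ser mutant), 300–1000 ng/mL, competes with compound for ASF-coated wells for 3 h at 4 °C. Bound lectin detected with streptavidin-peroxidase (80 ng/mL, 1 h, 4 °C) and ABTS by absorbance; IC50 reported as geomean of several runs.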

In experiment [2] the target is human Gal-1 (hGal-1) (Homo sapiens, UniProt P09382, C131S/C17S/C43S/C61S/C89S). Nature of the experiment: Competitive binding assay: biotinylated hGal-1 binding to microplate-adsorbed asialofetuin (ASF). As to conditions: IC50 values from several measurements given as geomean. The essentials: as §1

Sequence of human Gal-3 (hGal-3) (P17931 whole entry): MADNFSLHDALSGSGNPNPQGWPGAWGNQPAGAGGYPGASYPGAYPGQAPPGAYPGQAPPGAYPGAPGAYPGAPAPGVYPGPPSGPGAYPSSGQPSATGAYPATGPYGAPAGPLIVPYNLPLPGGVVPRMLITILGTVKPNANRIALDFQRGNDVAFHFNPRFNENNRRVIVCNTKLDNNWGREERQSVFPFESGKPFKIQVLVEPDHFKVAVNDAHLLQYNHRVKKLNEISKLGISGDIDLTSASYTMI

The term IC50 denotes the concentration that gives 50% inhibition. Consider `CO[C@@H]1[C@@H](n2cc(-c3ccc(Br)c(F)c3F)nn2)[C@@H](O)[C@@H](CO)O[C@@H]1Cc1cn(C2(C)CC(F)(F)C2)nn1` [Ex 4.1.15.], for which the IC50 in experiment [1] stood at 50 nM; in experiment [2], 2410 nM.

In the case of `CO[C@@H]1[C@@H](n2cc(-c3ccc(Br)c(F)c3F)nn2)[C@@H](O)[C@@H](CO)O[C@@H]1Cc1cn([C@]2(C)C[C@H](O)C2)nn1` [Ex 4.1.19.], the values for the IC50 in experiment [1] and in experiment [2] were 50 nM and 1820 nM, respectively.

For `COCC1(n2cc(C[C@H]3O[C@H](CO)[C@H](O)[C@H](n4cc(-c5ccc(Br)c(F)c5F)nn4)[C@H]3OC)nn2)CCC1` [Ex 4.1.21.], the values for the IC50 in experiment [1] and in experiment [2] were 70 nM and 1530 nM, respectively.

Consider `CO[C@@H]1[C@@H](n2cc(-c3ccc(Br)c(F)c3F)nn2)[C@@H](O)[C@@H](CO)O[C@@H]1Cc1cn(C2(CCO)COC2)nn1` [Ex 4.1.22.], for which the 50% inhibitory concentration (IC50) in experiment [1] turned out to be 70 nM; in experiment [2] it was 1140 nM.

Turning to `CO[C@@H]1[C@@H](n2cc(-c3ccc(Br)c(F)c3F)nn2)[C@@H](O)[C@@H](CO)O[C@@H]1Cc1cn(C2(C)CC2)nn1` [Ex 4.1.23.], the IC50 in experiment [1] was 30 nM; in experiment [2], 1800 nM.

For the compound `CO[C@@H]1[C@@H](n2cc(-c3ccc(Br)c(F)c3F)nn2)[C@@H](O)[C@@H](CO)O[C@@H]1Cc1cn(C23CC(C(F)(F)F)(C2)C3)nn1` [Ex 4.1.24.], the values for the half-inhibitory concentration (IC50) in experiment [1] and in experiment [2] were 130 nM and 28400 nM, respectively.

As for `CO[C@@H]1[C@@H](n2cc(-c3ccc(Br)c(F)c3F)nn2)[C@@H](O)[C@@H](CO)O[C@@H]1Cc1cn(C23CC(F)(C2)C3)nn1` [Ex 4.1.25., (2R,3R,4S,5R,6R)-4-(4-(4-bromo-2,3-difluorophenyl)-1H-1,2,3-triazol-1-yl)-6-((1-(3-fluorobicyclo[1.1.1]pentan-1-yl)-1H-1,2,3-triazol-4-yl)methyl)-2-(hydroxymethyl)-5-methoxytetrahydro-2H-pyran-3-ol], the IC50 in experiment [1] was 50 nM; in experiment [2], 3220 nM.

Regarding `CO[C@@H]1[C@@H](n2cc(-c3ccc(Br)c(F)c3F)nn2)[C@@H](O)[C@@H](CO)O[C@@H]1Cc1cn(C(C)(C)C(F)F)nn1` [Ex 4.1.28.], the figures for the IC50 in experiment [1] and in experiment [2] were 50 nM and 1020 nM, respectively.

`CO[C@@H]1[C@@H](n2cc(-c3ccc(Br)c(F)c3F)nn2)[C@@H](O)[C@@H](CO)O[C@@H]1Cc1cn(C23CC(OC)(C2)C3)nn1` [Ex 4.1.29.]: the IC50 in experiment [1] was found to be 50 nM; in experiment [2] it was 3630 nM.

On to `CO[C@@H]1[C@@H](n2cc(-c3ccc(Br)c(F)c3F)nn2)[C@@H](O)[C@@H](CO)O[C@@H]1Cc1cn(C2(CF)CCC2)nn1` [Ex 4.1.40., (2R,3R,4S,5R,6R)-4-(4-(4-bromo-2,3-difluorophenyl)-1H-1,2,3-triazol-1-yl)-6-((1-(1-(fluoromethyl)cyclobutyl)-1H-1,2,3-triazol-4-yl)methyl)-2-(hydroxymethyl)-5-methoxytetrahydro-2H-pyran-3-ol], for which the IC50 in experiment [1] was 60 nM; in experiment [2], 1030 nM.

With `CO[C@@H]1[C@@H](n2cc(-c3ccc(Br)c(F)c3F)nn2)[C@@H](O)[C@@H](CO)O[C@@H]1Cc1cn(C2(C(F)F)CCC2)nn1` [Ex 4.1.43.], the IC50 turned out to be 30 nM in experiment [1] and 960 nM in experiment [2].

For the compound `CO[C@@H]1[C@@H](n2cc(-c3ccc(Br)c(F)c3F)nn2)[C@@H](O)[C@@H](CO)O[C@@H]1Cc1cn(C23COC(C2)C3)nn1` [Ex 4.1.44.], the IC50 in experiment [1] was determined as 40 nM; in experiment [2], 3300 nM.

`CO[C@@H]1[C@@H](n2cc(-c3ccc(Br)c(F)c3F)nn2)[C@@H](O)[C@@H](CO)O[C@@H]1Cc1cn(C2(CF)CC2)nn1` [Ex 4.1.46., (2R,3R,4S,5R,6R)-4-(4-(4-bromo-2,3-difluorophenyl)-1H-1,2,3-triazol-1-yl)-6-((1-(1-(fluoromethyl)cyclopropyl)-1H-1,2,3-triazol-4-yl)methyl)-2-(hydroxymethyl)-5-methoxytetrahydro-2H-pyran-3-ol]: the IC50 is 30 nM in experiment [1] and 1940 nM in experiment [2].
